Measurements: patent publication US20220411362A1, “DITERPENOID COMPOUNDS THAT ACT ON PROTEIN KINASE C (PKC)” (K-Gen, Inc., priority 2019, published 2022)
Where two headings read alike, the source gives them in different places.

What was measured:
[1] = tested on: A549 non-small cell lung cancer cell line; experiment: Proliferation of A549 (CellTiter Glo); format: cell-based; details: read-out: IC50 μM (A549 Cell Line)
In short: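 A549 cells (K-Ras mutant) seeded 1,000/well, 24 h at 37° C, then treated with 3-fold serial dilutions (final DMSO ≤0.25%) for 96 h. Viability by CellTiter Glo luminescence; % inhibition vs DMSO-only Max, curve-fit to give IC50, relative IC50 and % top inhibition.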

[2] = target: T1, C1b domain of human PKD1 (PKCμ) (Homo sapiens, UniProt Q15139); experiment: biochemical; format: binding
T1 construct: Genes encoding C1b domains of human PKCα, δ, ε, θ, and PKD1 (PKCμ) were synthesized; made in house; host or cells: E. coli BL21(DE3)
T1 sequence (Q15139 270-320 limits assumed): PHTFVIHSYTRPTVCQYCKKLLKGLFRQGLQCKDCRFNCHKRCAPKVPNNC
In short: (§1)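 Recombinant GST-C1b domains (E. coli-expressed) or full-length human PKC competed against tracer ^3H-PDBu; incubation 10 min at 37°C then 20 min on ice, bound radioligand filter-trapped and scintillation-counted. IC50 fitted and converted to Ki via Cheng-Prusoff using experimentally determined Kd per protein preparation.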

C1b domain of human PKCδ = target: T2, C1b domain of human PKCδ (Homo sapiens, UniProt Q05655); experiment: Competitive 3H-PDBu binding to C1b domain of PKCδ; details: 3H-PDBu competition
T2 construct: Genes encoding C1b domains of human PKCα, δ, ε, θ, and PKD1 (PKCμ) were synthesized; made in house; host or cells: E. coli BL21(DE3)
In short: as §1

[3] = tested on: phosphorylation of PKCμ, PKCδ and Erk1/2 in A549 lung cancer cells; format: cell-based; details: 3 μM, 30 minutes, Western blot
Protocol: Cells were then treated with different drugs at indicated concentrations for 30 minutes. […] Imagequant LAS4000 (GE) was used to scan membranes if secondary antibodies anti-mouse IgG HRP conjugate or anti-rabbit IgG HRP conjugate (dilutions from 1:2000-1:10000) were used. For ProteinSimple Wes system, manufacture's procedure was followed (ProteinSimple 12-230 kDa Wes Separation Module) for sample preparation, loading, running, and data analysis.
Phosphorylation of these sites has been linked to acute activation or catalytic activity of the PKC isoforms and Erk1/2. High level of phosphorylation indicates strong activation.

C1b domain of human PKCα = target: T3, C1b domain of human PKCα (Homo sapiens, UniProt P17252); experiment: biochemical; format: binding; details: 3H-PDBu competition
T3 construct: Genes encoding C1b domains of human PKCα, δ, ε, θ, and PKD1 (PKCμ) were synthesized; made in house; host or cells: E. coli BL21(DE3)
In short: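 Competitive binding against 3H-PDBu tracer used recombinant GST-C1b fusion protein expressed in E. coli. Incubation ran 10 min at 37°C with shaking, then 20 min on ice, followed by filtration and scintillation counting of trapped 3H-PDBu. Affinity was derived using each protein preparation's experimentally determined Kd for 3H-PDBu.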

[4] = tested on: KP-4 (Pancreatic) cell line; experiment: Proliferation of KP-4; format: cell-based; details: KP-4; read-out: IC50 in μM KP-4 (Pancreatic)
Protocol: (§2) The diterpenoid compounds were tested in A549, a non-small cell lung cancer cell line harboring a K-Ras activating mutation. Briefly, A549 cells at a density of 1,000 cells/well were seeded in 96-well plates and incubated at 37° C. for 24 hours. A series of different concentrations of compound stocks (500×) were prepared by 3-fold serial dilution in DMSO. These compounds were further diluted in culture media and then added to cells so that the final DMSO concentration was not exceeding 0.25%. After 96 hours of incubation, 50 μL of CellTiter Glo reagent (Promega) was added to each well and luminescence was measured after 10 minutes using EnVision (PerkinElmer). Luminescence from cells treated with DMSO alone was set as Max and % of inhibition was calculated as follows: Inhibition %=(Max−Sample value)/Max×100. Data was analyzed using XL-fit software (ID Business Solutions Ltd.) and IC50, relative IC50, and % of top inhibition was calculated. Some of the compounds in this disclosure were very potent in blocking proliferation of A549 lung cancer cells at low nM range. In addition, potency of inhibiting A549 proliferation correlated well with its binding affinity to PKCs for this series of compounds. In other words, higher affinity binders had stronger inhibitory effects on A549 proliferation. This further support the notion that activation, rather than inhibition, of certain PKC isoforms is required to block proliferation of cancer cells, some of which may harbor K-Ras mutations. This is in sharp contrast to previous literature and common belief that inhibition of PKC is necessary to block cancer cell growth (Kang, 2014, New Journal of Science, 2014:1-36). Data presented here is in agreement with recent findings that many loss-of-function but not gain-of-function mutations of PKC isoforms have been identified in many human cancers (Antal et al., 2015, Cell, 160:489-502).
(§3) The compounds in this disclosure were tested for their potency in blocking proliferation of a few other cancer cells lines, including K-Ras mutant pancreatic cell lines Panc2.13 and KP-4, leukemia cell line HL-60, and lymphoma cell lines Namalwa and Mino. Similar procedures as in Example 67 were followed. Initial cell numbers seeded in 96-well plates were different for different cell lines: 3000 cells/well for Panc2.13; 800-1000 cells/well for KP-4; 5000 cells/well for HL-60; 5000-10000 cells/well for Namalwa and Mino. A ratio ratio of (IC50 of K01)/(IC50 of compound) (data in parenthesis in Table 5) was used to normalize the compound potency from different assay batches to a common comparator […].

[5] = tested on: HL-60 (Leukemia) cell line; experiment: Proliferation of HL-60; format: cell-based; details: HL-60
Protocol: as §2, §3

[6] = tested on: Panc2.13 (Pancreatic) cell line; experiment: Proliferation of Panc2.13; format: cell-based; details: Panc2.13
Protocol: as §2, §3

C1b domain of human PKCε = target: T4, C1b domain of human PKCε (Homo sapiens, UniProt Q02156); experiment: Competitive 3H-PDBu binding to C1b domain of PKCε; details: C1b domain of human PKCε, 3H-PDBu competition; read-out: Ki PKCε
T4 construct: Genes encoding C1b domains of human PKCα, δ, ε, θ, and PKD1 (PKCμ) were synthesized; made in house; host or cells: E. coli BL21(DE3)
Protocol: (§4) Compounds described in this disclosure were tested for binding affinity to C1b domain of PKC isoforms. Compound binding affinity to C1b domain of PKC isoforms was derived from competitive binding assay using radioactive tracer ^3H-PDBu and recombinant GST-C1b or full-length of human PKC proteins based on modified procedures from Methods in Molecular Biology, vol.
(§5) Genes encoding C1b domains of human PKCα, δ, ε, θ, and PKD1 (PKCμ) were synthesized and inserted into pGEX-2TK or pGEX-4T1 vectors for expression and production of GST-C1b proteins in E. coli BL21(DE3) via IPTG induction. The target proteins were purified by glutathione sepharose 4B and followed by ion exchange chromatography if needed to achieve purity >70%. Aliquots of the purified proteins were stored at −80 degree for binding assay (storage buffer: 20 mM Tris pH 8.0, 200 mM NaCl, 10% glycerol, 1 mM DTT).
(§6) The plate was incubated at 37° C. on a shaker at 300 rpm for 10 minutes and then put on ice for 20 minutes. […] The bottom of the filter plate was sealed and 50 μL of MicroScint-20 (PerkinElmer) cocktail was added to each well. ^3H-PDBu trapped in each well was counted using PerkinElmer MicroBeta2 Reader. Data were analyzed using GraphPad Prism5 with the model “log(inhibitor) vs. response-variable slope” to fit the IC50, and then IC50 was transformed to Ki using Cheng-Prusoff equation: Ki=IC50/(1+added radio ligand/Kd). Kd is the binding affinity of each protein preparation to ^3H-PDBu, determined experimentally.

[7] = tested on: Mino (Lymphoma) cell line; experiment: Proliferation of Mino; format: cell-based; details: Mino
Protocol: as §2, §3

C1b domain of human PKCθ = target: T5, C1b domain of human PKCθ (Homo sapiens, UniProt Q04759); experiment: Competitive 3H-PDBu binding to C1b domain of PKCθ; details: C1b domain of human PKCθ, 3H-PDBu competition; read-out: Ki PKCθ
T5 construct: Genes encoding C1b domains of human PKCα, δ, ε, θ, and PKD1 (PKCμ) were synthesized; made in house; host or cells: E. coli BL21(DE3)
T5 sequence (Q04759 231-281 limits assumed): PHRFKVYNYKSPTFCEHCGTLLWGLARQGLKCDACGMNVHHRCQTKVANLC
Protocol: as §4, §5, §6

[8] = tested on: Namalwa (Lymphoma) cell line; experiment: Proliferation of Namalwa; format: cell-based; details: Namalwa
Protocol: as §2, §3

T2 sequence (Q05655 230-280 limits assumed): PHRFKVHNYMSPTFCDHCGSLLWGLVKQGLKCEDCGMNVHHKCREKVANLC
T4 sequence (Q02156 242-292 limits assumed): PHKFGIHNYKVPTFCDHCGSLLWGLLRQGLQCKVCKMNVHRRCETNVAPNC

| Structure (SMILES) | IC50 ([1]; Homo sapiens, A549, 96 h) [µM] | Ki [2] [nM] | Ki (C1b domain of human PKCδ; Ki PKCδ) [nM] | phosphorylation of PKC (PKD/PKCμ), PKCδ and Erk1/2 [3] | Ki (C1b domain of human PKCα; Ki PKCα) [nM] | IC50 ([1]; A549, 96 hours incubation, CellTiter Glo) [µM] | IC50 [4] [µM] | Ki ([2]; C1b domain of human PKD1 (PKCμ), 3H-PDBu competition, read-out: Ki PKD1/PKCμ) [nM] | Ki (C1b domain of human PKCδ; read-out: Ki PKCδ) [nM] | IC50 ([5]; read-out: IC50 in μM HL-60 (Leukemia)) [µM] | ratio of (IC50 of K01)/(IC50 of compound), HL-60 ([5]; value in parenthesis) | IC50 ([6]; read-out: IC50 in μM Panc2.13 (Pancreatic)) [µM] | ratio of (IC50 of K01)/(IC50 of compound), Panc2.13 ([6]; value in parenthesis) | Ki (C1b domain of human PKCε) [nM] | IC50 ([7]; read-out: IC50 in μM Mino (Lymphoma)) [µM] | ratio of (IC50 of K01)/(IC50 of compound), Mino ([7]; value in parenthesis) | Ki (C1b domain of human PKCα; read-out: Ki PKCα) [nM] | Ki (C1b domain of human PKCθ) [nM] | IC50 ([8]; read-out: IC50 in μM Namalwa (Lymphoma)) [µM] | ratio of (IC50 of K01)/(IC50 of compound), Namalwa ([8]; value in parenthesis) |
| --- | --- | --- | --- | --- | --- | --- | --- | --- | --- | --- | --- | --- | --- | --- | --- | --- | --- | --- | --- | --- |
| CC1=C[C@H]2[C@@]3(O)[C@H](C)C[C@]4(OC(=O)CCc5ccccn5)[C@H]([C@@H]3C=C(CO)C[C@]2(O)C1=O)C4(C)C [Compound K101-C1316] | 0.6 to 1 | 30 to 60 | 100 to 200 | induced phosphorylation | 6000 to 8000 |  |  |  |  |  |  |  |  |  |  |  |  |  |  |  |
| CC1=C[C@H]2[C@@]3(O)[C@H](C)C[C@]4(OC(=O)[C@@H](N)Cc5ccccc5)[C@H]([C@@H]3C=C(CO)C[C@]2(O)C1=O)C4(C)C [Compound K101-C1303] |  |  |  | induced phosphorylation |  | 0.6 to 1 | 0.6 to 1 | 1 to 30 | 30 to 60 | 0.2 to 0.6 | 0.9 | 1 to 2 | 0.75 | 100 to 200 | 0.1 to 0.2 | 0.57 | 400 to 800 | 30 to 60 | 0.2 to 0.6 | 0.19 |
| CC1=C[C@H]2[C@@]3(O)[C@H](C)C[C@]4(OC(=O)[C@H](N)Cc5ccccc5)[C@H]([C@@H]3C=C(CO)C[C@]2(O)C1=O)C4(C)C [Compound K101-C1336] | 1 to 2 | 30 to 60 | 100 to 200 | induced phosphorylation | 2000 to 4000 |  |  |  |  |  |  |  |  |  |  |  |  |  |  |  |
